In patent US20210338692A1, “A 19-NOR C3,3-DISUBSTITUTED C21-N-PYRAZOLYL STEROID AND METHODS OF USE THEREOF” (SAGE THERAPEUTICS, INC., priority 2018, published 2021):

Assays:
subjects with MDD = assay: Earlier clinical studies of Compound 1 in subjects with MDD (Phase 2 study, previous clinical trials)
[1] = system: synaptic and extrasynaptic GABAA receptors; conditions: cited from earlier work
[2] = system: female subjects diagnosed with severe postpartum depression; assay: Placebo-controlled study of Compound 1 in postpartum depression (HAM-D, MADRS, HAM-A, CGI-I); type: in vivo, human; conditions: 30 mg once a day for 15 days
Description: Compound 1 was investigated for use in subjects with depression. Female subjects (18-65 years old) diagnosed with severe postpartum depression (PDD) with a HAM-D total score of greater than or equal to 26 at screening and Day 1 were used in the investigation. The subjects were dosed once per day with capsules containing 30 mg of Compound 1. The dose could be adjusted to capsules containing 20 mg of Compound 1 if the 30 mg dose was not tolerated. Subjects not dosed with Compound 1 were dosed with a placebo. In total, 78 subjects were treated with Compound 1 at 30 mg and 73 subjects were treated with placebo.
Assuming a 2-sided test at an alpha level of 0.05, a sample size of approximately 65 evaluable subjects per treatment group provided 90% power to detect a placebo-adjusted treatment difference of approximately 4 points in the primary endpoint, change from baseline in HAM-D total score at Day 15 assuming standard deviation (SD) of 7 points. The change from baseline in the HAM-D total score was analyzed using a mixed effects model for repeated measures (MMRM). The model included the change from baseline at each visit as the dependent variable. The main comparison was (difference in least mean square [LSMEAN]) between Compound 1 Capsules and placebo at the 15-day timepoint. […]

SMILES: C[C@@]1(O)CC[C@H]2[C@H](CC[C@@H]3[C@@H]2CC[C@]2(C)[C@@H](C(=O)Cn4cc(C#N)cn4)CC[C@@H]32)C1 [Compound 1]
- efficacy and tolerability of the dose level (subjects with MDD; 30 mg per day, Phase 2 study in subjects with MDD): efficacious and well-tolerated
- subjects with HAM-D score of 16 to 21 among those achieving remission or response at Day 15 (subjects with MDD; Day 42): 18.2%
- subjects with HAM-D≥22 among those achieving remission or response at Day 15 (subjects with MDD; Day 42): 6.1%
- adverse effect when administered in the morning (subjects with MDD; previous clinical trials, administered in the morning): sedation/somnolence observed
- tolerability when given in the evening (subjects with MDD; previous clinical trials, given in the evening): improved tolerability
- mode of action at GABAA receptors [1]: positive allosteric modulator of GABAA receptors
- overall efficacy in postpartum depression compared to placebo [2]: effective at treating postpartum depression
